From US20260297016A1, “THERAPEUTIC COMPOUNDS” (REGENTS OF THE UNIVERSITY OF MINNESOTA, priority 2023, published 2026)

How the values were obtained:
human PPARα = molecular target: T1, human PPARα (Homo sapiens, UniProt Q07869); assay: Cell-based Luciferase Assay, human PPARα agonist activity (Indigo Biosciences hPPARα IB00111); conditions: for activation at 0.5 µM: read-out: % PPAR-alpha AGONISM, % at 0.5 μm; for activation at 5 µM: read-out: % PPAR-alpha AGONISM, % at 5 μm; for activation at 50 µM: read-out: % PPAR-alpha AGONISM, % at 50 μm
T1 construct: borders undisclosed
T1 sequence (Q07869 1-468): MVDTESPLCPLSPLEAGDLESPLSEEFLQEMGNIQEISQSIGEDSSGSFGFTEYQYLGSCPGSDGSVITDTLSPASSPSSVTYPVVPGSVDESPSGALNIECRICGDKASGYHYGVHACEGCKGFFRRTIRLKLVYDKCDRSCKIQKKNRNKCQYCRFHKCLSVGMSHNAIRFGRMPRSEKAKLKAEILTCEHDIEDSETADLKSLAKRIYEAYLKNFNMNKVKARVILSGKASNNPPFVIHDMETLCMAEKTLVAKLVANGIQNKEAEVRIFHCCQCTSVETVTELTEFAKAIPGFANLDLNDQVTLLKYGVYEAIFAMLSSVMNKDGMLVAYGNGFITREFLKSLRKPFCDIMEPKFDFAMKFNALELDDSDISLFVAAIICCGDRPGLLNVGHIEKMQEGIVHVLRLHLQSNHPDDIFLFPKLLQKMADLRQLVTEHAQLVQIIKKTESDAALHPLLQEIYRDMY
Excerpt: Cell-based Luciferase Assay. […] Luminescence was quantified using a GloMax Explorer (Promega).

STING = molecular target: T2, STING (Homo sapiens, UniProt Q86WV6, G230A/H232R/R293Q/R71H); assay: IRF-Lucia Reporter STING Inhibition Assay (THP-1 Lucia ISG cells); assay type: cell-based; conditions: 1 μM 2,3-cGAMP, 20 hours
T2 construct: THP-1 Lucia ISG cells (InvivoGen, thpl-isg); host or cells: THP-1 Lucia ISG cells
Procedure: IRF-Lucia Reporter STING Inhibition Assay. […] Cells were incubated at 37° C. in a 5% CO2 atmosphere with varying concentrations of test compound for 1.5 hours, followed by treatment with 1 μM 2,3-cGAMP (InvivoGen, tlrl-nacga23-02) and incubated for 20 hours. A 20 μL aliquot of cell suspension was added to 50 μL. QUANTI-Luc™ reagent (InvivoGen, rep-qlc4lg2), and the resulting luminescence is measured by a GloMax Explorer (Promega) with a 0.1 second read time.

T2 sequence (Q86WV6 whole entry R71H/G230A/H232R/R293Q): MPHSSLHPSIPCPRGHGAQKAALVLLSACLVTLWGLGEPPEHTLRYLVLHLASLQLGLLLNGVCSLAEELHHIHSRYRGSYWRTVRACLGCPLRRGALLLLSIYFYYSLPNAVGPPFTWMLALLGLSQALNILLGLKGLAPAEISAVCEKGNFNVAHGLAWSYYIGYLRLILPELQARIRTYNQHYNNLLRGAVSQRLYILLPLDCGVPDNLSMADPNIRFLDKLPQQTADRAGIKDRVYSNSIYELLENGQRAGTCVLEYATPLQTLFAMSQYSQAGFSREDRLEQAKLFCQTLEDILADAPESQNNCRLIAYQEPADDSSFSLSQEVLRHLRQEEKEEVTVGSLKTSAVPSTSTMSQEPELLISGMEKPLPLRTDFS

Row | Compound | activation at 0.5 µM (human PPARα) | activation at 5 µM (human PPARα) | activation at 50 µM (human PPARα) | % STING INHIBITION, % at 12.5 μm (STING) | % STING INHIBITION, % at 25 μm (STING) | % STING INHIBITION, % at 50 μm (STING) | PPAR-alpha agonism of the positive control (human PPARα; 90 nM) | cytotoxicity of the positive control (human PPARα; 90 nM)
1 | O=C(O)c1cc(F)cc(NCc2ccc(-c3ccc(C(F)(F)F)cc3)cn2)c1 [Example 22, 3-Fluoro-5-(((5-(4-(trifluoromethyl)phenyl)pyridin-2-yl)methyl)amino)benzoic Acid] | 22.1% | 62.2% | 42.1% | – | – | – | – | –
2 | Cc1cc(F)ccc1-c1ccc(CNc2ccc(O)c(C(=O)O)c2)cc1 [Example 41, 5-(((4′-Fluoro-2′-methyl-[1,1′-biphenyl]-4-yl)methyl)amino)-2-hydroxybenzoic acid] | – | – | – | 25% | 47% | 80% | – | –
3 | CC(C)(Sc1ccc(CCN(CCCCC2CCCCC2)C(=O)NC2CCCCC2)cc1)C(=O)O [GW7647, reference compound] | – | – | – | – | – | – | full agonism | without signs of cytotoxicity
4 | Oc1ccc(NCc2ccc(-c3ccc(F)cc3)cc2)cc1-c1nnn[nH]1 [Example 48] | – | – | – | 0% | 32% | 77% | – | –
5 | O=C(O)c1cc(NCc2ccc(-c3ccccc3)cc2)ccc1O [Example 37, 5-(([1,1′-Biphenyl]-4-ylmethyl)amino)-2-hydroxybenzoic acid] | – | – | – | 0% | 28% | 66% | – | –
6 | O=C(O)c1cc(F)cc(NCc2csc(-c3ccc(C(F)(F)F)cc3)n2)c1 [Example 25, 3-fluoro-5-(((2-(4-(trifluoromethyl)phenyl)thiazol-4-yl)methyl)amino)benzoic Acid] | 21.7% | 88.7% | 42.4% | – | – | – | – | –
7 | O=C(O)c1ccc(F)c(NCc2ccc(-c3ccc(C(F)(F)F)cc3)cc2)c1 [Example 7, 4-Fluoro-3-(((4′-(trifluoromethyl)-[1,1′-biphenyl]-4-yl)methyl)amino)benzoic acid] | 6.6% | 98% | 68.1% | – | – | – | – | –
8 | O=C(O)c1cc(O)cc(NCc2ccc(-c3ccc(F)cc3)cc2)c1 [Example 45, 3-(((4′-Fluoro-[1,1′-biphenyl]-4-yl)methyl)amino)-5-hydroxybenzoic acid] | – | – | – | 9% | 50% | 80% | – | –
9 | O=C(O)c1cc(F)cc(NCc2cn(-c3ccc(F)cc3)nn2)c1 [Example 30, 3-fluoro-5-(((1-(4-fluorophenyl)-1H-1,2,3-triazol-4-yl)methyl)amino)benzoic Acid] | 9.6% | 19.1% | 48.8% | – | – | – | – | –
10 | O=C(O)c1cc(F)cc(NCc2cnc(-c3ccc(C(F)(F)F)cc3)s2)c1 [Example 24, 3-fluoro-5-(((2-(4-(trifluoromethyl)phenyl)thiazol-5-yl)methyl)amino)benzoic Acid] | 15.7% | 83.3% | 74.9% | – | – | – | – | –
11 | O=C(O)c1cc(F)cc(NCc2cn(-c3ccc(C(F)(F)F)cc3)nn2)c1 [Example 29, 3-fluoro-5-(((1-(4-(trifluoromethyl)phenyl)-1H-1,2,3-triazol-4-yl)methyl)amino)benzoic Acid] | 27% | 139% | 91% | – | – | – | – | –
12 | O=C(O)c1cccc(NCc2cn(-c3ccc(C(F)(F)F)cc3)nn2)c1 [Example 27, 3-(((1-(4-(trifluoromethyl)phenyl)-1H-1,2,3-triazol-4-yl)methyl)amino)benzoic Acid] | 51.1% | 94.3% | 58.5% | – | – | – | – | –
13 | O=C(O)c1cc(F)cc(NCc2ccc(-c3ccccc3)cc2)c1 [Example 8, 3-(([1,1′-Biphenyl]-4-ylmethyl)amino)-5-fluorobenzoic Acid] | 17.6% | 50.3% | 95.2% | – | – | – | – | –
14 | O=C(O)c1cccc(NCc2ccc(-c3ccc(C(F)(F)F)cc3)cc2)c1 [Example 2, 3-(((4′-(Trifluoromethyl)-[1,1′-biphenyl]-4-yl)methyl)amino)benzoic acid] | 74.7% | 103% | 27.4% | – | – | – | – | –
15 | Cc1cc(CNc2cc(F)cc(C(=O)O)c2)ccc1-c1ccc(C(F)(F)F)cc1C [Example 12, 3-(((2,2′-Dimethyl-4′-(trifluoromethyl)-[1,1′-biphenyl]-4-yl)methyl)amino)-5-fluorobenzoic Acid] | 14.1% | 46.3% | 26.5% | – | – | – | – | –
16 | O=C(O)c1cccc(NCc2ccc(-c3ccc(C(F)(F)F)cc3)cc2)c1F [Example 4, 2-Fluoro-3-(((4′-(trifluoromethyl)-[1,1′-biphenyl]-4-yl)methyl)amino)benzoic acid] | 73.7% | 120% | 20.9% | – | – | – | – | –
17 | O=C(O)c1cccc(NCc2ccc(-c3ccc(F)cc3)cc2)c1 [Example 1, 3-(((4′-Fluoro-[1,1′-biphenyl]-4-yl)methyl)amino)benzoic acid] | 35.6% | 125% | 55.1% | – | – | – | – | –
18 | O=C(O)c1cc(NCc2ccc(-c3ccc(C(F)(F)F)cc3)cc2)ccc1F [Example 5, 2-Fluoro-5-(((4′-(trifluoromethyl)-[1,1′-biphenyl]-4-yl)methyl)amino)benzoic acid] | 67.4% | 92.5% | 54.4% | – | – | – | – | –
19 | O=C(O)c1cc(F)cc(NCc2cc(Cl)c(-c3ccc(C(F)(F)F)cc3)c(Cl)c2)c1 [Example 10, 3-(((2,6-Dichloro-4′-(trifluoromethyl)-[1,1′-biphenyl]-4-yl)methyl)amino)-5-fluorobenzoic acid] | 0% | 37.2% | 17.4% | – | – | – | – | –
20 | COc1ccc(-c2ccc(CNc3cccc(C(=O)O)c3)cc2)cc1 [Example 3, 3-(((4′-Methoxy-[1,1′-biphenyl]-4-yl)methyl)amino)benzoic acid] | 32.9% | 112% | 98.3% | – | – | – | – | –
21 | N#Cc1ccc(-c2ccc(CNc3cc(F)cc(C(=O)O)c3)cc2)cc1 [Example 14, 3-(((4′-Cyano-[1,1′-biphenyl]-4-yl)methyl)amino)-5-fluorobenzoic Acid] | 7% | 58.7% | 83.8% | – | – | – | – | –
22 | O=C(O)c1cc(F)cc(NCc2ccc(-c3ccc(C4CCCC4)cc3)cc2)c1 [Example 20, 3-(((4′-Cyclopentyl-[1,1′-biphenyl]-4-yl)methyl)amino)-5-fluorobenzoic acid] | 38.2% | 58.5% | 48% | – | – | – | – | –
23 | O=C(O)c1cc(F)cc(NCc2ccc(-c3ccc(Cl)cc3)cc2)c1 [Example 18, 3-(((4′-Chloro-[1,1′-biphenyl]-4-yl)methyl)amino)-5-fluorobenzoic acid] | 38.6% | 80% | 87.8% | – | – | – | – | –
24 | Cc1ccc(-c2ccc(CNc3cc(F)cc(C(=O)O)c3)cc2)cc1 [Example 19, 3-Fluoro-5-(((4′-methyl-[1,1′-biphenyl]-4-yl)methyl)amino)benzoic acid] | 40.6% | 101% | 98.9% | – | – | – | – | –
25 | Cc1cc(C(F)(F)F)ccc1-c1ccc(CNc2cc(F)cc(C(=O)O)c2)cc1 [Example 13, 3-Fluoro-5-(((2′-methyl-4′-(trifluoromethyl)-[1,1′-biphenyl]-4-yl)methyl)amino)benzoic Acid] | 38.3% | 47.4% | 27.5% | – | – | – | – | –
26 | COc1ccc(-c2ccc(CNc3cc(F)cc(C(=O)O)c3)cc2)cc1 [Example 16, 3-Fluoro-5-(((4′-methoxy-[1,1′-biphenyl]-4-yl)methyl)amino)benzoic acid] | 38.2% | 106% | 96% | – | – | – | – | –
27 | O=C(O)c1cc(F)cc(NCc2csc(-c3ccc(F)cc3)n2)c1 [Example 26, 3-fluoro-5-(((2-(4-fluorophenyl)thiazol-4-yl)methyl)amino)benzoic Acid] | 10.6% | 14.2% | 50% | – | – | – | – | –
28 | O=C(O)c1cc(F)cc(NCc2ccc(-c3ccc(C(F)(F)F)cc3)cc2O)c1 [Example 9, 3-Fluoro-5-(((3-hydroxy-4′-(trifluoromethyl)-[1,1′-biphenyl]-4-yl)methyl)amino)benzoic Acid] | 8% | 49.6% | 46.8% | – | – | – | – | –
29 | O=C(O)c1cccc(NCc2cn(-c3ccc(F)cc3)nn2)c1 [Example 28, 3-(((1-(4-fluorophenyl)-1H-1,2,3-triazol-4-yl)methyl)amino)benzoic Acid] | 13.1% | 21.5% | 58.6% | – | – | – | – | –
